# Measured values reported in patent US20220264878A1, “HERBICIDAL COMPOSITION CONTAINING R-TYPE PYRIDYLOXY CARBOXYLIC ACID DERIVATIVE AND USE THEREOF” (Qingdao Kingagroot Chemical Compound Co., Ltd., priority 2019, published 2022).
# Tests used:
# Assay in all cases: Post-emergence foliage spray, pot culture, fresh weight inhibition (Tables 1-48, 51-98, 101-148; 24 days)
# Assay type in all cases: in vivo
# Solanum nigrum = tested on: Solanum nigrum
# Description: (§1) Table 1-48, 51-98, 101-148: Echinochloa crusgalli var. zelayensis, Eclipta prostrate, Galium aparine L., Alopecurus aequalis, Alopecurus japonicus, Lindernia procumbens, Veronica persica^1, Malachium aquaticum, Beckmannia syzigachne, Stellaria media were collected in Huai'an of Jiangsu Province; Commelina communis, Sonchus arvensis, Setaria glauca, Chloris virgata, Setaria faberi, Sonchus oleraceus L., Echinochloa oryzoides, Cirsium setosum, Xanthium strumarium were collected in Qiqiha'er of Heilongjiang Province; Sinapis arvensis, Veronica persica^2 were collected in Zhumadian of Henan Province; Ludwigia prostrate, Ammannia arenaria were collected in Zhuji of Zhejiang Province; Amaranthus retrojlexus, Descurainia sophia, Digitaria sanguinalis, Setaria viridis, Conyza Canadensis, Capsella bursa-pastoris, Eleusine indica, Ipomoea purpurea, Abutilon theophrasti, Chenopodium album, Acalypha australis, Solanum nigrum were collected in Qingdao of Shandong Province; Echinochloa caudate were collected in Pingluo of Ningxia Province.
# (§2) The above weeds were cultivated by a pot culture method. […] Full and uniform weed seeds were selected, soaked in warm water at 25° C. for 6 hours, and germinated in a 28° C. biochemical incubator (darkness). The weed seeds that had just germinatedwere evenly placed on the surface of the soil and then covered with 0.5-1 cm soil according to the sizes of seeds.
# (§3) The culture was carried out in a controllable sunlight greenhouse at 20 to 30° C., in natural light, and relative humidity of 57% to 72%.
# (§4) The technical materials were all dissolved in acetone, and diluted with an aqueous solution containing 0.1% emulsifier Tween-80. The dilution is performed as required.
# (§5) A ratio of the active ingredient A to the active ingredient B and amounts thereof in each group depends on the characteristics and toxicity of the two agents, as well as the main application purpose of a corresponding formulation. Based on the pre-tests in this study, the dosage of the active ingredient A and B applied alone and in combination were shown in the tables. Water containing the solvent and emulsifier same with the above groups but free of the agents was used as a blank control.
# (§6) Table 1-48, 51-98, 101-148, 151-206: […] per treatment, that is, a total of 60 weeds were treated in one treatment.
# (§7) Table 1-48, 51-98, 101-148: The agents were used for only once in the experiment. In the stage of weeds with 3˜4 leaves, the weeds were thinned out to maintain 15 weeds per pot and 45 weeds for each treatment, then continued to be cultured to 5˜6 leaves stage of grassy weeds, 6˜7 leaves stage of broadleaf weeds, and treated.
# (§8) The well-cultured weeds were evenly placed on a platform with an area of 0.5 m^2, and a solution of agents was sprayed on the stems and leaves thereof by the 3WP-2000-type walking spray tower at a dosage of 450 kg/ha and at a spray pressure of 0.3 MPa. After all the solution was sprayed, the valve was closed. After 30 seconds, the door of the spray tower was opened, and the nutritional bowl was taken out. Then the valve was opened, and the spray tube was cleaned by spraying 50 ml of water.
# (§9) A pot-culture method was employed. For the cultivation of weeds, please refer to the Section 1.1), and “Pesticide guidelines for laboratory bioactivity tests—herbicides”. As to a method for applying agents, please refer to the section 2.3.2), that is, a foliage treatment was employed. After the treatment, the weeds were routinely cultured in a greenhouse.
# (§10) A method for investigating absolute number was employed, wherein whole seedlings of survival weeds were cut off with a blade along the soil surface, and the fresh weight of the weeds was weighed with an analytical balance. For dead weeds, the fresh weight thereof was zero.
# (§11) Table 1-48, 51-98, 101-148, 207-216: The investigation was performed after 24 days of the treatment for only once.
# [1] = tested on: Veronica persica^2 (collected in Zhumadian of Henan Province)
# Description: as §1, §2, §3, §4, §5, §6, §7, §8, §9, §10, §11
# Chloris virgata = tested on: Chloris virgata
# Description: as §1, §2, §3, §4, §5, §6, §7, §8, §9, §10, §11
# Eleusine indica = details: Table 79
# Description: as §1, §2, §3, §4, §5, §6, §7, §8, §9, §10, §11
smiles,measurement,setting,value
CCOC(=O)C(Cl)Cc1cc(-n2nc(C)n(C(F)F)c2=O)c(F)cc1Cl (stereo not drawn) [carfentrazone-ethyl],Control effect (%) of B applied alone in corresponding dose,Solanum nigrum; B 1.875 g a.i./ha,6.3%
same,Control effect (%) of B applied alone in corresponding dose,Solanum nigrum; B 3.75 g a.i./ha,12.1%
same,Control effect (%) of B applied alone in corresponding dose,Solanum nigrum; B 7.5 g a.i./ha,38.0%
same,Control effect (%) of B applied alone in corresponding dose,Solanum nigrum; B 15 g a.i./ha,68.7%
same,Control effect (%) of B applied alone in corresponding dose,"[1]; Table 90, 1.875 g a.i./ha",2.6%
same,Control effect (%) of B applied alone in corresponding dose,"[1]; Table 90, 3.75 g a.i./ha",11.6%
same,Control effect (%) of B applied alone in corresponding dose,"[1]; Table 90, 7.5 g a.i./ha",36.2%
same,Control effect (%) of B applied alone in corresponding dose,"[1]; Table 90, 15 g a.i./ha",68.2%
O=C(Nc1ccc(F)cc1F)c1cccnc1Oc1cccc(C(F)(F)F)c1 [diflufenican],Control effect (%) of B applied alone in corresponding dose,Solanum nigrum; B 15 g a.i./ha,6.0%
same,Control effect (%) of B applied alone in corresponding dose,Solanum nigrum; B 30 g a.i./ha,15.0%
same,Control effect (%) of B applied alone in corresponding dose,Solanum nigrum; B 60 g a.i./ha,41.7%
same,Control effect (%) of B applied alone in corresponding dose,Solanum nigrum; B 120 g a.i./ha,76.5%
same,Control effect (%) of B applied alone in corresponding dose,"[1]; Table 87, 15 g a.i./ha",2.3%
same,Control effect (%) of B applied alone in corresponding dose,"[1]; Table 87, 30 g a.i./ha",10.2%
same,Control effect (%) of B applied alone in corresponding dose,"[1]; Table 87, 60 g a.i./ha",40.3%
same,Control effect (%) of B applied alone in corresponding dose,"[1]; Table 87, 120 g a.i./ha",76.2%
CCn1ncc(C(=O)c2ccc(S(C)(=O)=O)c(COCC(F)(F)F)c2Cl)c1OC(=O)c1cn(C)nc1C [fenpyrazone],Control effect (%) of B applied alone in corresponding dose,Chloris virgata; B 7.5 g a.i./ha,5.5%
same,Control effect (%) of B applied alone in corresponding dose,Chloris virgata; B 15 g a.i./ha,14.8%
same,Control effect (%) of B applied alone in corresponding dose,Chloris virgata; B 30 g a.i./ha,39.9%
same,Control effect (%) of B applied alone in corresponding dose,Chloris virgata; B 60 g a.i./ha,79.2%
same,Control effect (%) of B applied alone in corresponding dose,Eleusine indica; 7.5 g a.i./ha,2.9%
same,Control effect (%) of B applied alone in corresponding dose,Eleusine indica; 15 g a.i./ha,10.9%
same,Control effect (%) of B applied alone in corresponding dose,Eleusine indica; 30 g a.i./ha,38.6%
same,Control effect (%) of B applied alone in corresponding dose,Eleusine indica; 60 g a.i./ha,79.1%
